Experiments:
[1] = test system: T-cell lymphoma cell lines; test: CellTiter-Glo 2.0 cell viability assay, T-cell lymphoma cell lines; type: cell-based; settings: 11 T-cell lymphoma cell lines; Fig. 9
Protocol: The effect of BCV on the viability of 11 different T-cell lymphoma cell lines was examined. Cell viability was quantified using Promega CellTiter-Glo(registered trademark) 2.0 Cell Viability Assay (Promega, Madison, Wisconsin, USA) according to the manufacturer's protocol. Specifically, cells were plated in a 96-well plate at a concentration of 2×10^3 cells in 100 µL of culture medium, and the drug was added at each concentration. After each time point, Promega CellTiter-Glo(registered trademark) 2.0 Cell Viability Assay reagent was added to the wells and incubated at room temperature for 10 minutes, and subsequently, absorbance at 480 nm was measured using a Tecan M200 Infinite 96-well plate reader and iControl software 1.6 (Tecan, Männedorf, Switzerland). Cell viability was calculated as a percentage of a control absorbance. The growth-inhibitory effect was analyzed by generating a dose-response curve as a plot of the percentage of viable cells against the drug concentration, and their IC50s were estimated using GraphPad Prism version 8.0.2 (GraphPad Software). All reactions were performed in triplicate.

[2] = test system: NK/T-cell lymphoma cell lines; test: CellTiter-Glo 2.0 cell viability assay, NK/T-cell lymphoma cell lines; type: cell-based; settings: 11 NK/T-cell lymphoma cell lines; Fig. 1
Protocol: The effect of BCV on cell viability was examined in 11 different NK/T-cell lymphoma cell lines. Cell viability was quantified using Promega CellTiter-Glo(registered trademark) 2.0 Cell Viability Assay (Promega, Madison, Wisconsin, USA) according to the manufacturer's protocol. Specifically, cells were plated in a 96-well plate at a concentration of 2×10^3 cells in 100 µL of culture medium, and the drug (BCV) was added at each concentration. After each time point, Promega CellTiter-Glo (registered trademark) 2.0 Cell Viability Assay reagent was added to the wells and incubated at room temperature for 10 minutes, and subsequently, absorbance at 480 nm was measured using a Tecan M200 Infinite 96-well plate reader and iControl software 1.6 (Tecan, Männedorf, Switzerland). Cell viability was calculated as a percentage of the control absorbance. The growth-inhibitory effect was analyzed by generating a dose-response curve as a plot of the percentage of viable cells against the drug concentration, and their IC50s were estimated using GraphPad Prism version 8.0.2 (GraphPad Software). All reactions were performed in triplicate.

[3] = test system: NK/T-cell lymphoma cells (NK-S1); test: In vivo study, NSG mice inoculated with NK-S1
Protocol: (§1) 0.5 x 10^6 cells of NK-S1 were inoculated into 6-week-old female NSG mice, and BCV or a control solvent was administered intraperitoneally at a dosage of 40 mg/kg twice weekly. Tumor measurements were recorded twice weekly until the tumor size in the control group reached approximately 2000 mm^3. Mice were euthanized according to the IACUC guidelines. The tumor sizes of the experimental group and the control group (n=8 per group) were averaged at each time point (Days 1, 5, 8, 12, and 15) and compared statistically. Throughout the experiment, signs of toxicity including diarrhea and weight loss were monitored.

Z4739 cells = test: Western blotting of lysates of BCV-treated Z4739 cells; type: cell-based; settings: Z4739 treated with 0.1 and 1 µg/mL of BCV; Western blot, Fig. 13
Protocol: Lysates of Z4739 cells treated with 0.1 and 1 µg/mL of BCV were separated by SDS-PAGE using 4-15% Mini-PROTEAN™ TGX Stain-Free™ Protein Gels (Bio-Rad Laboratories, Hercules, CA, USA), and the separated components were transferred to a 0.2 µm PVDF membrane (Bio-Rad Laboratories, Hercules, California, USA). After blocking for 1 hour in a TBST solution (50 mM Tris/HCl, pH 7.4, 150 mM NaCl, 0.1% Tween-20) containing 5% skimmed milk powder (Bio-Rad Laboratories, Hercules, CA, USA) or 5% bovine serum albumin (Sigma-Aldrich, Darmstadt, Germany), the membrane was exposed to respective primary antibodies overnight at 4°C with gentle shaking. Furthermore, exposure to an HRP-conjugated anti-rabbit or anti-mouse antibody (Cytiva, Washington D.C., USA) was performed for 1 hour, and finally, chemiluminescent detection was performed using a SuperSignal Substrate Western Blotting Kit (Thermo Fisher Scientific, MA, USA) and imaged on a ChemiDoc™ XRS+ system (Bio-Rad Laboratories, Hercules, California, USA) using Image Lab™ software.

[4] = test system: T-cell lymphoma cells (Z4739); test: In vivo study, NSG mice inoculated with Z4739
Protocol: as §1, with “of Z4739” for “of NK-S1”, “recorded at each time point (Days 4, 7, 11, 18, and 21)” for “recorded twice weekly”, “approximately 2500” for “approximately 2000”, “sizes and weights” for “sizes”, “group (n=5” for “group (n=8”, “averaged on Day 21” for “averaged at each time point (Days 1, 5, 8, 12, and 15)”

Z4739 cell line = test: Whole transcriptome sequencing and GSEA of BCV-treated Z4739 cell line; type: cell-based; settings: Z4739 treated with 0.1 and 1 µg/mL of BCV
Protocol: The effect of BCV on the gene expression of a T-cell lymphoma cell line was examined. Whole transcriptome sequencing of the Z4739 cell line treated with 0.1 and 1 µg/mL of BCV was performed, and Gene set enrichment analysis (GSEA) was performed using the Molecular Signatures Database (MSigDB) Hallmark gene set. […] Individual gene expression profiles (IFNB1, IFNY, CCL5, CXCL10, MYC) obtained from the whole transcriptome sequencing results were expressed as the number of transcripts detected per million reads.

[5] = test system: B-cell lymphoma cell lines; test: CellTiter-Glo 2.0 cell viability assay, B-cell lymphoma cell lines; type: cell-based; settings: 19 B-cell lymphoma cell lines; Fig. 14
Protocol: The effect of BCV on cell viability was examined in 19 different B-cell lymphoma cell lines and a CML cell line (K-562) as a control. Cell viability was quantified using Promega CellTiter-Glo(registered trademark) 2.0 Cell Viability Assay (Promega, Madison, Wisconsin, USA) according to the manufacturer's protocol. Specifically, cells were plated in a 96-well plate at a concentration of 2×10^3 cells in 100 µL of culture medium, and the drug (BCV) was added at each concentration. After each time point, Promega CellTiter-Glo(registered trademark) 2.0 Cell Viability Assay reagent was added to the wells and incubated at room temperature for 10 minutes, and subsequently, absorbance at 480 nm was measured using a Tecan M200 Infinite 96-well plate reader and iControl software 1.6 (Tecan, Männedorf, Switzerland). Cell viability was calculated as a percentage of a control absorbance. The growth-inhibitory effect was analyzed by generating a dose-response curve as a plot of the percentage of viable cells against the drug concentration, and their IC50s were estimated using GraphPad Prism version 8.0.2 (GraphPad Software). All reactions were performed in triplicate.

[6] = test system: B-cell lymphoma cells (OCI-LY19); test: In vivo study, NSG mice inoculated with OCI-LY19
Protocol: as §1, with “of OCI-LY19” for “of NK-S1”, “recorded at each time point (Days 1, 5, 6, and 7)” for “recorded twice weekly”, “approximately 2500” for “approximately 2000”, “sizes and weights” for “sizes”, “group (n=5” for “group (n=8”, “averaged on Day 7” for “averaged at each time point (Days 1, 5, 8, 12, and 15)”

Q: With `CCCCCCCCCCCCCCCCOCCCOP(=O)(O)CO[C@H](CO)Cn1ccc(N)nc1=O` [BCV, [(2S)-1-(4-amino-2-oxopyrimidin-1-yl)-3-hydroxypropan-2-yl]oxymethyl-(3-hexadecoxypropoxy)phosphinic acid] as the compound, how does the “Sensitivity to BCV” value [1] read?
A: high in all cell lines

Q: And the “viability of T-cell lymphoma cells” value [1]?
A: decreased

Q: And the “Sensitivity to BCV” value [2]?
A: varied for each cell line

Q: What about the “viability of NK/T-cell lymphoma cells” value [2] of the same compound?
A: decreased

Q: And the “animal's health status” value ([3]; NK-S1 in NSG mice, 40 mg/kg intraperitoneally twice weekly)?
A: good

Q: And the “enlargement of lymphoma (tumor size)” value ([3]; NK-S1 in NSG mice, 40 mg/kg intraperitoneally twice weekly, Days 1-15, Figs. 2A-D)?
A: significantly suppressed

Q: What about the “signs of toxicity: diarrhea” value ([3]; mouse, in vivo, ip, 40 mg/kg) of the same compound?
A: no diarrhea observed

Q: What about the “DNA damage (phospho-H2AX)” value (Z4739 cells) of the same compound?
A: increase

Q: What about the MYC protein (Z4739 cells) of the same compound?
A: decrease

Q: What about the PD-L1 (Z4739 cells) of the same compound?
A: increase

Q: What about the “apoptosis indicators (cleaved PARP, cleaved caspase-3)” value (Z4739 cells) of the same compound?
A: increase

Q: What about the “cell cycle-related indicators (phospho-CHK1 Ser317/Ser345)” value (Z4739 cells) of the same compound?
A: increase

Q: And the “animal's health status” value ([4]; Z4739 in NSG mice, 40 mg/kg intraperitoneally twice weekly)?
A: good

Q: And the “enlargement of the lymphoma (tumor size)” value ([4]; Z4739 in NSG mice, 40 mg/kg intraperitoneally twice weekly, Figs. 10A-D)?
A: significantly suppressed

Q: What about the tumor volume ([4]; Z4739 in NSG mice, 40 mg/kg intraperitoneally twice weekly, between Day 0 and Day 21, Fig. 10A) of the same compound?
A: almost no increase in tumor volume observed

Q: And the “signs of toxicity: weight loss or diarrhea” value ([4]; mouse, in vivo, ip, 40 mg/kg)?
A: no significant weight loss or diarrhea was observed

Q: What about the “expression of immune activation-related genes such as INFγ” value (Z4739 cell line) of the same compound?
A: increased

Q: And the “expression of MYC” value (Z4739 cell line; Figs. 12A-C)?
A: decreased

Q: What about the “expression of MYC-related gene groups” value (Z4739 cell line; GSEA) of the same compound?
A: decreased

Q: What about the “expression of other oncogenic genes such as those related to mTOR” value (Z4739 cell line; GSEA) of the same compound?
A: decreased

Q: What about the “Sensitivity to BCV” value [5] of the same compound?
A: varied for each cell line

Q: What about the “viability of B-cell lymphoma cells” value [5] of the same compound?
A: decreased

Q: What about the “animal's health status” value ([6]; OCI-LY19 in NSG mice, 40 mg/kg intraperitoneally twice weekly) of the same compound?
A: good

Q: And the “enlargement of lymphoma (tumor size)” value ([6]; OCI-LY19 in NSG mice, 40 mg/kg intraperitoneally twice weekly, Days 1-7, Figs. 15A-D)?
A: significantly suppressed

Q: And the “signs of toxicity: weight loss or diarrhea” value ([6]; mouse, in vivo, ip, 40 mg/kg)?
A: no weight loss or diarrhea observed
